EC50, Ki and Emax data for nine compounds are collected here from US8980906B2, “Pyridonemorphinan analogs and biological activity on opioid receptors” (Purdue Pharma L.P., priority 2012, dated 2015).

Experiment [1] deals with T1, μ-opioid receptor (Homo sapiens (Human), UniProt P35372). The experiment can be described thus: μ-opioid receptor [35S]GTPγS functional assay, HEK-293 or CHO cells. Type of experiment: biochemical. The conditions noted are these: for Emax: relative to DAMGO, HEK-293 or CHO cells.
Experiment [2] deals with T1, μ-opioid receptor. The experiment can be described thus: μ-opioid receptor radioligand dose-displacement binding assay ([3H]-diprenorphine). The conditions noted are these: binding affinity. Here is the method:
μ-Opioid Receptor Binding Assay Procedures: Radioligand dose-displacement binding assays for μ-opioid receptors used 0.3 nM [^3H]-diprenorphine (Perkin Elmer, Shelton, Conn.), with […] membrane protein/well in a final volume of 500 μl binding buffer (10 mM MgCl2, 1 mM EDTA, 5% DMSO, 50 mM HEPES, pH 7.4). Reactions were carried out in the absence or presence of increasing concentrations of unlabeled naloxone. All reactions were conducted in 96-deep well polypropylene plates for 2 hours at room temperature. Binding reactions were terminated by rapid filtration onto 96-well Unifilter GF/C filter plates (Perkin Elmer, Shelton, Conn.), presoaked in 0.5% polyethylenimine using a 96-well tissue harvester (Perkin Elmer, Shelton, Conn.) followed by performing three filtration washes with 500 μl of ice-cold binding buffer. Filter plates were subsequently dried at 50° C. for 2-3 hours. BetaScint scintillation cocktail (Perkin Elmer, Shelton, Conn.) was added (50 μl/well), and plates were counted using a Packard Top-Count for 1 min/well. The data were analyzed using the one-site competition curve fitting functions in GraphPad PRISM™ v. 3.0 or higher (San Diego, Calif.), or an in-house function for one-site competition curve-fitting.

In experiment [3] the target is T2, κ-opioid receptor (Homo sapiens (Human), UniProt P41145). The experiment is described as follows: κ-opioid receptor [35S]GTPγS functional assay, HEK-293 or CHO cells. Type of experiment: biochemical. Particulars: for Emax: relative to U69,593, HEK-293 or CHO cells. Here is the method: (§1) κ-Opioid Receptor Functional Assay Procedures: Functional [^35S]GTPγS binding assays were conducted as follows. κ opioid receptor membrane solution was prepared by sequentially adding final concentrations of 0.026 μg/μl κ membrane protein (in-house), 10 μg/mL saponin, 3 μM GDP and 0.20 nM [^35S]GTPγS to binding buffer (100 mM NaCl, 10 mM MgCl2, 20 mM HEPES, pH 7.4) on ice. The prepared membrane solution (190 μl/well) was transferred to 96-shallow well polypropylene plates containing 10 μl of 20× concentrated stock solutions of agonist prepared in DMSO. Plates were incubated for 30 min at a temperature of about 25° C. with shaking. Reactions were terminated by rapid filtration onto 96-well Unifilter GF/B filter plates (Perkin Elmer, Shelton, Conn.) using a 96-well tissue harvester (Packard) and followed by three filtration washes with 200 μl ice-cold binding buffer (10 mM NaH2PO4, 10 mM Na2HPO4, pH 7.4). Filter plates were subsequently dried at 50° C. for 2-3 hours. Fifty μl/well scintillation cocktail (Perkin Elmer, Shelton, Conn.) was added and plates were counted in a Packard Top-Count for 1 min/well.
(§2) κ-Opioid Receptor Functional Data: κ GTP EC50 is the concentration of a compound providing 50% of the maximal response for the compound at a κ receptor.
(§3) κ GTP Emax (%) is the maximal effect elicited by a compound relative to the effect elicited by U69,593.
In TABLE 2, activity response of certain Compounds of the Invention to the μ-, δ- and κ-opioid receptors was determined as described above for functional assays using HEK-293 or CHO cells.

Experiment [4] has as its target T2, κ-opioid receptor. The experiment is described as follows: κ-opioid receptor radioligand dose-displacement binding assay ([3H]-U69,593). The conditions noted are these: binding affinity, [3H]-U69,593 displacement. Here is the method:
κ-Opioid Receptor Binding Assay Procedures: Membranes from HEK-293 cells, CHO or U-2 OS cells expressing the recombinant human kappa opioid receptor (κ) were prepared by lysing cells in ice cold hypotonic buffer (2.5 mM MgCl2, 50 mM HEPES, pH 7.4) (10 mL/10 cm dish) followed by homogenization with a tissue grinder/Teflon pestle. Membranes were collected by centrifugation at 30,000×g for 15 min at 4° C. and pellets were resuspended in hypotonic buffer to a final concentration of 1-3 mg/mL. Protein concentrations were determined using the BioRad protein assay reagent with bovine serum albumen as standard, Aliquots of κ receptor membranes were stored at […].
Radioligand dose displacement assays used 0.4 nM [^3H]-U69,593 (GE Healthcare, Piscataway, N.J.; 40 Ci/mmole) with 15 μg membrane protein (recombinant κ opioid receptor expressed in HEK 293 cells; in-house prep) in a final volume of 200 μl binding buffer (5% DMSO, 50 mM Trizma base, pH 7.4). Non-specific binding was determined in the presence of 10 μM unlabeled naloxone or U69,593. All reactions were performed in 96-well polypropylene plates for 1 hour at a temperature of about 25° C. Binding reactions were terminated by rapid filtration onto 96-well Unifilter GF/C filter plates (Perkin Elmer, Shelton, Conn.) presoaked in 0.5% polyethylenimine (Sigma). Harvesting was performed using a 96-well tissue harvester (Perkin Elmer, Shelton, Conn.) followed by five filtration washes with 200 μl ice-cold binding buffer. Filter plates were subsequently dried at 50° C. for 1-2 hours. Fifty μl/well scintillation cocktail (Perkin Elmer, Shelton, Conn.) was added and plates were counted in a Packard Top-Count for 1 min/well.

Experiment [5] concerns the target T2, κ-opioid receptor. The experiment can be described thus: κ-opioid receptor [35S]GTPγS functional assay, U-2 OS cells. Type of experiment: biochemical. Here is the method:
as §1, §2, §3
(§4) The following TABLE 3 provides results on the activity response of certain Compounds of the Invention at the μ- and κ-opioid receptors determined as described above using U-2 OS cells.

Experiment [6] deals with T1, μ-opioid receptor. The experiment is described as follows: μ-opioid receptor [35S]GTPγS functional assay, U-2 OS cells. Type of experiment: biochemical. Here is the method: μ-Opioid Receptor Functional Assay Procedures: [^35S]GTPγS functional assays were conducted using freshly thawed μ-receptor membranes prepared in-house from a cell line expressing recombinant μ opioid receptor in a HEK-293, CHO or U-2 OS cell background, or purchased from a commercial source (Perkin Elmer, Shelton, Conn.; or DiscovRx, Fremont, Calif.). Assay reactions were prepared by sequentially adding the following reagents to binding buffer (100 mM NaCl, 10 mM MgCl2, 20 mM HEPES, pH 7.4) on ice (final concentrations indicated): membrane protein (0.026 mg/mL), saponin ([…]), GDP ([…]) and [^35S]GTPγS (0.20 nM; Perkin Elmer, Shelton, Conn.). The prepared membrane solution (190 μl/well) was transferred to 96-shallow well polypropylene plates containing 10 μl of 20× concentrated stock solutions of the agonist [D-Ala^2, N-methyl-Phe^4 Gly-ol^5]-enkephalin (DAMGO) prepared in dimethyl sulfoxide (DMSO). Plates were incubated for 30 min at about 25° C. with shaking. Reactions were terminated by rapid filtration onto 96-well Unifilter GF/B filter plates (Perkin Elmer, Shelton, Conn.) using a 96-well tissue harvester (Perkin Elmer, Shelton, Conn.) followed by three filtration washes with 200 μl of ice-cold wash buffer (10 mM NaH2PO4, 10 mM Na2HPO4, pH 7.4). Filter plates were subsequently dried at 50° C. for 2-3 hours. BetaScint scintillation cocktail (Perkin Elmer, Shelton, Conn.) was added (50 μl/well) and plates were counted using a Packard Top-Count for 1 min/well. Data were analyzed using the sigmoidal dose-response curve fitting functions in GraphPad PRISM v. 3.0, or an in-house function for non-linear, sigmoidal dose-response curve-fitting.
μ-Opioid Receptor Functional Data: μ GTP EC50 is the concentration of a compound providing 50% of the maximal response for the compound at a μ-opioid receptor.
μ GTP Emax (%) is the maximal effect elicited by a compound relative to the effect elicited by DAMGO, a standard μ agonist. Generally, the μ GTP Emax (%) value measures the efficacy of a compound to treat or prevent pain or other Conditions.
as §4

Setting [7] is: [3H]-diprenorphine displacement, read-out: Ki (nM) Opioid Receptor μ.

Molecules are shown by their SMILES. Read-outs that look alike come from different tables or passages of the source.

`NC(=O)c1cc2c([nH]c1=O)C[C@]13CCN(CC4CC4)[C@H](Cc4ccc(O)cc41)[C@@H]3C2` [Compound 7, (6R,6aR,12aS)-15-(cyclopropylmethyl)-2-hydroxy-10-oxo-6,6a,7,10,11,12-hexahydro-5H-6,12a-(epiminoethano)naphtho[2,1-g]quinoline-9-carboxamide]: the results for the EC50 at μ-opioid receptor [1] and at κ-opioid receptor [3] were above 20000 nM and 33.9 ± 3.73 nM, respectively. For the same compound, the Ki on μ-opioid receptor [2] (setting [7]) worked out at 4.55 ± 1.26 nM; on κ-opioid receptor [4] it was 0.19 ± 0.04 nM. This compound also came in with an Emax at κ-opioid receptor [3] of 31.3 ± 3.18%.

Turning to `NC(=O)[C@H](Cc1ccccc1)NC(=O)c1cc2c([nH]c1=O)C[C@]13CCN(CC4CC4)[C@H](Cc4ccc(O)cc41)[C@@H]3C2` [Compound 23, (6R,6aR,12aS)—N—((S)-1-amino-1-oxo-3-phenylpropan-2-yl)-15-(cyclopropylmethyl)-2-hydroxy-10-oxo-6,6a,7,10,11,12-hexahydro-5H-6,12a-(epiminoethano)naphtho[2,1-g]quinoline-9-carboxamide], the EC50 on μ-opioid receptor [1] turned out to be 3.19 ± 0.46 nM; on κ-opioid receptor [3], 8.35 ± 2.25 nM. The Emax on μ-opioid receptor [1] stood at 41.3 ± 5.04%; on κ-opioid receptor [3], 25.7 ± 4.18%. Moreover, the results for the Ki on μ-opioid receptor [2] (setting [7]) and at κ-opioid receptor [4] were 1.86 ± 0.65 nM and 0.31 ± 0.05 nM, respectively.

Take `CC(C)C[C@H](NC(=O)c1cc2c([nH]c1=O)C[C@]13CCN(CC4CC4)[C@H](Cc4ccc(O)cc41)[C@@H]3C2)C(N)=O` [Compound 24, (6R,6aR,12aS)—N—((S)-1-amino-4-methyl-1-oxopentan-2-yl)-15-(cyclopropylmethyl)-2-hydroxy-10-oxo-6,6a,7,10,11,12-hexahydro-5H-6,12a-(epiminoethano)naphtho[2,1-g]quinoline-9-carboxamide]: the results for the EC50 on μ-opioid receptor [1] and on κ-opioid receptor [3] were 5.2 ± 1.35 nM and 2.54 ± 0.55 nM, respectively. Besides, the results for the Emax at μ-opioid receptor [1] and on κ-opioid receptor [3] were 37 ± 7.02% and 23 ± 2.04%, respectively. The Ki on μ-opioid receptor [2] (setting [7]) was determined as 3.95 ± 1.84 nM; at κ-opioid receptor [4], 0.96 ± 0.1 nM.

For the compound `NC(=O)[C@@H]1CCCN1C(=O)c1cc2c([nH]c1=O)C[C@]13CCN(CC4CC4)[C@H](Cc4ccc(O)cc41)[C@@H]3C2` [Compound 25, (S)-1-((6R,6aR,12aS)-15-(cyclopropylmethyl)-2-hydroxy-10-oxo-6,6a,7,10,11,12-hexahydro-5H-6,12a-(epiminoethano)naphtho[2,1-g]quinoline-9-carbonyl)pyrrolidine-2-carboxamide], the values for the EC50 at μ-opioid receptor [1] and on κ-opioid receptor [3] were 4.87 ± 0.52 nM and 4.42 ± 0.85 nM, respectively. Further, the figures for the Emax on μ-opioid receptor [1] and on κ-opioid receptor [3] were 29.3 ± 1.45% and 44.7 ± 2.73%, respectively. For the same compound, the values for the Ki on μ-opioid receptor [2] (setting [7]) and on κ-opioid receptor [4] were 0.41 ± 0.05 nM and 0.32 ± 0.06 nM, respectively.

In the case of `COC(=O)c1cc2c([nH]c1=O)C[C@]13CCN(C)[C@H](Cc4ccc(OC)cc41)[C@]3(O)C2` [Compound 27, (6R,6aS,12aR)-methyl 15-(methyl)-6a-hydroxy-2-methoxy-10-oxo-6,6a,7,10,11,12-hexahydro-5H-6,12a-(epiminoethano)naphtho[2,1-g]quinoline-9-carboxylate], the Ki on μ-opioid receptor [2] (bound given in μM, read-out: Ki Opioid Receptor μ) was above 20000 nM; at κ-opioid receptor [4] it was 3080 ± 128 nM.

As for `COc1ccc2c(c1)[C@]13CCN(C)[C@H](C2)[C@]1(O)Cc1cc(C(N)=O)c(=O)[nH]c1C3` [Compound 28, (6R,6aS,12aR)-15-(methyl)-6a-hydroxy-2-methoxy-10-oxo-6,6a,7,10,11,12-hexahydro-5H-6,12a-(epiminoethano)naphtho[2,1-g]quinoline-9-carboxamide], the inhibition constant (Ki) at μ-opioid receptor [2] (setting [7]) was found to be 14400 ± 4140 nM; at κ-opioid receptor [4] it was 12300 nM.

With `CN1CC[C@]23Cc4[nH]c(=O)c(C(N)=O)cc4C[C@@]2(O)[C@H]1Cc1ccc(O)cc13` [Compound 29, (6R,6aS,12aR)-15-(methyl)-2,6a-dihydroxy-10-oxo-6,6a,7,10,11,12-hexahydro-5H-6,12a-(epiminoethano)naphtho[2,1-g]quinoline-9-carboxamide], the figures for the inhibition constant Ki at μ-opioid receptor [2] (setting [7]) and on κ-opioid receptor [4] were 651 ± 101 nM and 25.3 ± 4.86 nM, respectively.

`COC(=O)c1cc2c([nH]c1=O)C[C@]13CCN(Cc4ccccc4)[C@H](Cc4ccc(OC)cc41)[C@]3(O)C2` [Compound 30, (6R,6aS,12aR)-methyl 15-benzyl-6a-hydroxy-2-methoxy-10-oxo-6,6a,7,10,11,12-hexahydro-5H-6,12a-(epiminoethano)naphtho[2,1-g]quinoline-9-carboxylate] registered a 50% effective concentration (EC50) on κ-opioid receptor [5] above 20000 nM. At κ-opioid receptor [5] (relative to U69,593, U-2 OS cells), this compound displayed an Emax of 1%. In addition, the Ki at μ-opioid receptor [2] (setting [7]) was 3940 ± 860 nM; at κ-opioid receptor [4] it was 599 ± 90 nM.

Take `COc1ccc2c(c1)[C@]13CCN(Cc4ccccc4)[C@H](C2)[C@]1(O)Cc1cc(C(N)=O)c(=O)[nH]c1C3` [Compound 31, (6R,6aS,12aR)-15-benzyl-6a-hydroxy-2-methoxy-10-oxo-6,6a,7,10,11,12-hexahydro-5H-6,12a-(epiminoethano)naphtho[2,1-g]quinoline-9-carboxamide]: the EC50 on μ-opioid receptor [6] is above 20000 nM. Further, the Emax at μ-opioid receptor [6] (relative to DAMGO, U-2 OS cells) worked out at 10.7 ± 5.21%. Also, the results for the Ki at μ-opioid receptor [2] (setting [7]) and on κ-opioid receptor [4] were 5590 ± 696 nM and 1580 ± 308 nM, respectively.
